Where a SMILES comes first, the peptide text is derived from it. [ ]: non-standard residue; d: D form. Arg(Me) = CNC(=N)NCCC[C@H](N)C(=O)O; Hyp = O=C(O)[C@@H]1C[C@@H](O)CN1; azaGly = NNC(=O)O
What was measured:
[1] = In vitro distribution into blood cells, humans; format: in vitro ADME
Method: The in vitro distribution ratios of [^14C]API-MA into the blood cells at the concentrations of 0.01, 0.1, 1, and 10 μg/mL API-FB (free form) were 7.8%, 8.0%, 7.1%, and 4.8% for rats, 2.4%, 2.0%, 1.6%, and 1.2% for dogs, and 2.0%, 0.0%, 0.0%, and 0.5% for humans, respectively. […] The in vitro plasma protein binding ratios of [^14C]API-FB in rats, dogs, monkeys, and humans were determined by the ultracentrifugation method. In addition, the protein binding to human serum albumin (HSA), α1-acid glycoprotein (AGP), and HSA/AGP was investigated. […] In rats and dogs, a slight decrease in the binding ratio at the concentration range between 0.1 and 1.0 μg/mL API-FB was observed. In monkeys and humans, the binding was independent of the drug concentrations from 0.01 to 10 μg/mL API-FB.

[2] = test system: serum LH and FSH; assay: Multiple-dose pharmacodynamics, continuous SC infusion, European men; format: in vivo, human
Method: This study was a phase 1 study of multiple-day, continuous SC infusions of API-MA to 30 healthy European men over age 50. […] Five to six men received active API-MA, and 1 to 2 men received placebo per dose level cohort. The pharmacodynamics of the following hormones were assessed: LH and FSH.
The SC infusion was started 24 hours after the bolus injection; all specimens collected after the 24-hour time point were collected during the SC infusion. Blood specimens were also collected on days 16, 17, 21, 28 and 44 to monitor the return of the hormone concentrations to baseline values.

[3] = 1-month depot PK, prostate cancer patients; format: in vivo, human; conditions: for AUC(0-t) / Cmax / Tmax: male, human, plasma; for AUC(0-t): sc; for AUC(0-t) / Cmax / Tmax / Tlqc: prostate cancer patients; for AUC(0-t) / Cmax / Tlqc: geometric mean; for Tmax: read-out: Tmax (median)
Method: Another study enrolled prostate cancer patients who had completed their primary treatment for prostate cancer at least 6 months prior to screening and were either on GnRH therapy or were potential future candidates for GnRH therapy. Nine patients were enrolled, three in each dose group (6, 12, and 24 mg). All were white men. Patients received API-MA as a single 1-month depot SC injection into the abdomen that was intended to initiate both a high-burst release of API-MA and rapid stimulation of hypothalamic-pituitary-gonadal-axis, and was expected to suppress testosterone. Overall, 4 of 9 patients received concomitant GnRH therapy.

[4] = Multiple-dose PK, SC bolus then continuous 13-day SC infusion, healthy European men; conditions: for Css / AUC(0-t) / Cmax: European men, geometric mean (% CV); for AUC(0-t): AUC (0-tlqc) (equal to AUC (0-24))
Method: Another study was a phase 1 clinical study of multiple-dose administration of API-MA. The study was conducted in France. It was a randomized, double-blind, placebo-controlled, parallel-group, ascending dose study of the safety, tolerability, plasma PK, and endocrine pharmacodynamic effects of API-MA administered as an SC bolus (0.1 mg) on day 1 followed by continuous SC infusion (i.e., 24 hr/day) from Day 2 to Day 14 (0.01, 0.1, 0.3, or 1.0 mg/day), which was expected to suppress testosterone.

[5] = test system: serum LH and FSH; assay: Single dose pharmacodynamics (LH, FSH), European men; format: in vivo, human
Method: Another study was a single dose, phase 1 clinical study of API-MA in healthy men age 50 to 76 years. Subjects enrolled in the first […] cohorts received 0.001, 0.003, 0.01, 0.03, 0.1 or 0.3 mg of API-MA or placebo by single SC bolus. Subjects enrolled in the seventh, eighth, and ninth cohorts received 1, 3, or 6 mg of API-MA or placebo by single 2-hour SC infusion. The pharmacodynamics of each of the following hormones was assessed: LH and FSH. PRL, TSH, cortisol, sex hormone binding globulin (SHBG), and plasma ACTH (also known as corticotropin) concentrations were measured on the day prior to dosing and on day 4, the Final Visit. To measure serum concentrations of LH and FSH in the bolus cohorts, blood specimens were collected at the following nominal times: the day prior to dosing, predose, and 0.083, 0.25, 0.75, 1, 2, 3, 4, 6, 8, 12, 16, 24, 36, 48 and 72 hours postdose. In the infusion cohorts, blood specimens were collected at the following nominal times: the day prior to dosing, predose or start of the infusion, and 0.5, 1, 1.5, 2 (end of infusion), 2.25, 2.5, 3, 4, 6, 8, 10, 14, 18, 26, 50 and 74 hours after the start of infusion. Serum LH concentrations increased after a single SC bolus of API-MA, as well as after a single 2-hour SC infusion of API-MA. The concentrations peaked between 6 and 12 hours and returned to baseline by 72 hours. The magnitudes and durations of the LH concentration increases were similar across the dose range, 0.001 to 6 mg.

[6] = molecular target: human KISS1R (Homo sapiens, UniProt Q969F8); assay: Intracellular Ca2+ mobilization (fluorometric imaging plate reader), human KISS1R; format: cell-based; design: expressed in transfected cells; host or cells: Chinese hamster ovary dihydrofolate reductase negative cells
Method: The effects of API-MA on intracellular Ca^2+ mobilization in KISS1R-expressing recombinant cells were evaluated by performing the fluorometric imaging plate reader assay.

[7] = male, human, plasma, sc, 0.1 mg, SC bolus 0.1 mg on Day 1, dosing group 0.01 mg/day
[8] = male, human, plasma, sc, 0.1 mg, SC bolus 0.1 mg on Day 1, dosing group 0.1 mg/day
[9] = male, human, plasma, sc, 0.1 mg, SC bolus 0.1 mg on Day 1, dosing group 0.3 mg/day
[10] = male, human, plasma, sc, 0.1 mg, SC bolus 0.1 mg on Day 1, dosing group 1.0 mg/day

human KISS1R, sequence (Q969F8 whole entry): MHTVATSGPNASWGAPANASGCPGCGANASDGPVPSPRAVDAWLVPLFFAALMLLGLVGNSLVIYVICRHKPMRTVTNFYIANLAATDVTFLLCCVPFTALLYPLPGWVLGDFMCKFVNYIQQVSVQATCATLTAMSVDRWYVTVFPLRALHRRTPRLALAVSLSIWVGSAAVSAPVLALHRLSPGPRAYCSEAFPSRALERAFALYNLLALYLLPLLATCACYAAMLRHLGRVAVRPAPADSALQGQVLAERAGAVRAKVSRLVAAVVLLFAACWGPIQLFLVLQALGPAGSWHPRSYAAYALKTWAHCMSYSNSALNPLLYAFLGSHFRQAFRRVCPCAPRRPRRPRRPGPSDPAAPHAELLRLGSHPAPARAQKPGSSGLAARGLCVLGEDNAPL

CC(=O)O.CNC(=N)NCCC[C@H](NC(=O)[C@H](CC(C)C)NC(=O)NNC(=O)[C@H](Cc1ccccc1)NC(=O)[C@@H](NC(=O)[C@H](CC(N)=O)NC(=O)[C@@H]1C[C@@H](O)CN1C(=O)[C@@H](Cc1ccc(O)cc1)NC(C)=O)[C@@H](C)O)C(=O)N[C@@H](Cc1c[nH]c2ccccc12)C(N)=O [API-MA, 2-(N-Acetyl-D-tyrosyl-trans-4-hydroxy-L-prolyl-Lasparaginyl-L-threonyl-L-phenylalanyl)-hydrazinocarbonyl-L-leucyl-Nω-methyl-L-arginyl-L-tryptophanamide monoacetate] (Ac-[dY][Hyp]NTF[azaGly]L[Arg(Me)]W-NH2)
Distribution ratio into blood cells ([1]; 0.01 μg/mL API-FB): 2.0%
Distribution ratio into blood cells ([1]; 0.1 μg/mL API-FB): 0.0%
Distribution ratio into blood cells ([1]; 1 μg/mL API-FB): 0.0%
Distribution ratio into blood cells ([1]; 10 μg/mL API-FB): 0.5%
Time of gonadotropin peak after bolus ([2]; 0.1 mg SC bolus on day 1): 24 h
Serum LH and FSH concentrations during prolonged infusion ([2]; 13-day SC infusion 0.01 to 1.0 mg/day): declined to values below baseline
Time of LH and FSH return to baseline values postdose ([2]; after 13-day SC infusion): ≤ 7 days
Detectability of API-MA in plasma ([3]; 1-month depot 6, 12 or 24 mg, all cases): not detectable by 8 weeks postdose
AUC(0-24) as share of AUC(0-tlqc) ([3]; 1-month depot 6, 12 or 24 mg, burst phase): over 60%
AUC(0-t) ([3]; 6 mg/month, 1-month depot SC 6 mg/month, read-out: AUC (0-24) (converted)): 79.6 ng·h/mL
AUC(0-t) ([3]; 6 mg/month, 1-month depot SC 6 mg/month, read-out: AUC (0-29 d) (converted)): 104 ng·h/mL
AUC(0-t) ([3]; 6 mg/month, 1-month depot SC 6 mg/month, read-out: AUC (0-tlqc) (converted)): 119 ng·h/mL
AUC(0-t) ([3]; 12 mg/month, 1-month depot SC 12 mg/month, read-out: AUC (0-24) (converted)): 119 ng·h/mL
AUC(0-t) ([3]; 12 mg/month, 1-month depot SC 12 mg/month, read-out: AUC (0-29 d) (converted)): 138 ng·h/mL
AUC(0-t) ([3]; 12 mg/month, 1-month depot SC 12 mg/month, read-out: AUC (0-tlqc) (converted)): 158 ng·h/mL
AUC(0-t) ([3]; 24 mg/month, 1-month depot SC 24 mg/month, read-out: AUC (0-24) (converted)): 179 ng·h/mL
AUC(0-t) ([3]; 24 mg/month, 1-month depot SC 24 mg/month, read-out: AUC (0-29 d) (converted)): 209 ng·h/mL
AUC(0-t) ([3]; 24 mg/month, 1-month depot SC 24 mg/month, read-out: AUC (0-tlqc) (converted)): 239 ng·h/mL
Cmax ([3]; 1-month depot SC 6 mg/month): 16.5 ng/mL
Tmax ([3]; 1-month depot SC 6 mg/month): 2 h
Cmax ([3]; 1-month depot SC 12 mg/month): 14.4 ng/mL
Tmax ([3]; 1-month depot SC 12 mg/month): 2.05 h
Cmax ([3]; 1-month depot SC 24 mg/month): 25.5 ng/mL
Tmax ([3]; 1-month depot SC 24 mg/month): 2.05 h
Tlqc ([3]; 1-month depot SC 6 mg/month): 42.9 h
Tlqc ([3]; 1-month depot SC 12 mg/month): 41.5 h
Tlqc ([3]; 1-month depot SC 24 mg/month): 47.2 h
Css ([4]; continuous 13-day SC INF 0.01 mg/day (Days 2-14)): 20.2 (34) pg/mL
Css ([4]; continuous 13-day SC INF 0.1 mg/day (Days 2-14)): 226 (17) pg/mL
Css ([4]; continuous 13-day SC INF 0.3 mg/day (Days 2-14)): 708 (19) pg/mL
Css ([4]; continuous 13-day SC INF 1.0 mg/day (Days 2-14)): 2280 (16) pg/mL
CL/F ([4]; male, human, plasma, sc, 0.01 mg/day): 343 mL/min
Tmax ([4]; male, human, plasma, sc, 0.1 mg): 0.5 h
AUC(0-t) [4, 7]: 5.08 ng·h/mL
AUC(0-t) [4, 8]: 4.28 ng·h/mL
AUC(0-t) [4, 9]: 4.68 ng·h/mL
AUC(0-t) [4, 10]: 4.05 ng·h/mL
Cmax [4, 7]: 1.87 ng/mL
Cmax [4, 8]: 1.59 ng/mL
Cmax [4, 9]: 1.65 ng/mL
Cmax [4, 10]: 1.29 ng/mL
CL/F ([4]; male, human, plasma, sc, 0.1 mg/day): 308 mL/min
CL/F ([4]; male, human, plasma, sc, 0.3 mg/day): 295 mL/min
CL/F ([4]; male, human, plasma, sc, 1 mg/day): 305 mL/min
Changes in serum SHBG, prolactin, TSH, corticotropin, cortisol ([5]; any dose level): no relevant changes
Time of FSH return / decline towards baseline ([5]; single dose 0.001 to 6 mg): ≤ 72 h
Time of LH return to baseline ([5]; single dose 0.001 to 6 mg): ≤ 72 h
EC50 [6]: 0.266 nM
Ratio of EC50 of API-MA to kisspeptin (45-54) ([6]; human KISS1R): 0.85
